Measurements as given in ChEMBL document CHEMBL1157539, “Thousands of chemical starting points for antimalarial lead identification” (Nature, 2010).

Each compound was assayed on Plasmodium falciparum (assay: GSK_TCMDC: Inhibition of Plasmodium falciparum 3D7 in whole erythrocytes, using parasite LDH activity as an index of growth.). Details: Plasmodium falciparum, 3D7.
Type: functional, organism-based

| Compound | XC50 [nM] |
| --- | --- |
| COc1ccc2nccc([C@H](O)CN3CCC(NCc4cc(C)c5c(c4)OCCO5)CC3)c2n1 | 902 |
| CCc1c[nH]c2c(N3CCCS3(=O)=O)cc(C(=O)N[C@@H](Cc3ccccc3)[C@H](O)CNC3CCCCC3)cc12 | 774 |
| COc1ccc(C(=O)N2CCC3(CC2)C(=O)N(CC(=O)NCC2CCCCC2)CN3c2ccccc2)c(OC)c1 | 119 |
| COc1ccc(-c2c(-c3ccc(OCc4ccccc4)cc3O)n[nH]c2C(F)(F)F)cc1 | 1170 |
| COc1nc2c(N3CCN(CCNCc4ccc5c(n4)NC(=O)CS5)CC3)ccnc2cc1F | 713 |
| O=C(Nc1ccc(-c2ccc(-c3nc4ccccc4[nH]3)s2)cc1)Nc1ccsc1 | 279 |
| O=C(Nc1cccc(-c2cccc(-c3nc4cc(F)ccc4[nH]3)c2)c1)c1ccncc1 | 514 |
| Nc1nc(N)c2cc(CNc3ccc(Cl)c(Cl)c3)ccc2n1 | 1020 |
| O=C(Nc1cccc(-c2ccc(CN3CCCC3)cc2)c1)c1cccc(F)c1 | 783 |
| O=C(NC1CCC(CN2CCC(c3c[nH]c4ccccc34)CC2)CC1)c1cc(-c2ccccc2)c(C(F)(F)F)s1 (stereo not drawn) | 167 |
| Cc1cc(=NN=Cc2ccccc2F)c2ccccc2[nH]1 | 919 |
| CC(C)(C)c1ccc(CNC(=O)c2cc(CNC3CCNCC3)ccc2O)cc1 | 710 |
| Cc1nc(C)c(-c2ccc(C(=O)c3ccccc3)cc2)c(O)c1Br | 778 |
| CCN(CC)Cc1cccc(-c2cc3c(-c4ccc(C(=O)O)c(C(C)C)c4)ccnc3[nH]2)c1OC | 323 |
| CC(=O)N/N=C/[C@H](CCc1ccccc1)NC(=O)[C@H](CC(C)C)NC(=O)c1ccc(OCCN2CCOCC2)cc1 | 222 |
| Fc1cccc(Cn2ncc3cc(Nc4ncnc5sc(C#Cc6ncc[nH]6)cc45)ccc32)c1 | 1800 |
| O=C(NC1CCCCC1)c1ccc(O)c(-c2cccc(C(F)(F)F)c2)c1 | 712 |
| O=C(Nc1ccccc1)Nc1ccc(-c2cccc(-c3nc4cc(C(F)(F)F)ccc4[nH]3)c2)cc1 | 734 |
| CC1=C(C(=O)OCCOCc2ccccc2)C(c2ccccc2C(F)(F)F)C(C(=O)OCCOCc2ccccc2)=C(C)N1 | 532 |
| COc1ccc2c(c1)CC(NCc1ccc(-c3ccc4nc[nH]c4c3)cc1)C2 (stereo not drawn) | 880 |
| CC(C)CCC[C@@H]([C@@H](CC1CCCCC1)C(=O)N[C@@H](CCCCNC(=O)OCc1ccccc1)C(=O)Nc1nccs1)N(O)C=O | 457 |
| COc1ccc2nccc(N3CCC(NCCNCc4ccc5c(n4)NC(=O)CS5)C3)c2n1 (stereo not drawn) | 694 |
| COc1ccc(-c2cnn3ccc(Nc4cc(OC)c(OC)c(OC)c4)nc23)cc1OC | 650 |

| Compound | XC50 [nM] |
| --- | --- |
| O=C(Nc1ccccc1)Nc1cccc(-c2nn3c(OCCN4CCCC4)cccc3c2-c2ccncc2)c1 | 404 |
| CC(C)N1CCN(c2ccc(OCCCCN3CCN(c4cccc(Cl)c4Cl)CC3)cc2Cl)CC1 | 1040 |
| CCOc1cc(Cc2cnc(N)nc2N)cc(OCC)c1O | 1170 |
| O=C(c1cccc(-c2ccc(-c3nc4cc(F)ccc4[nH]3)s2)c1)N1CCCCC1CN1CCC(O)C1 (stereo not drawn) | 715 |
| CCCC(C)Nc1nc(C)cc(N[C@@H](Cc2ccccc2)C(=O)Nc2ccc(OC)cc2)n1 (stereo partly drawn) | 1120 |
| CC(=NNC(=N)N)C(=O)Nc1ccc(Cl)c(Cl)c1 | 166 |
| CCOc1ccc(C=CC(=O)Nc2ccc3nc(N4CCN(C)CC4)cc(C)c3c2)cc1OC | 398 |
| O=C(Nc1ccc2oc(-c3ccc(Cl)cc3Cl)nc2c1)c1ccc([N+](=O)[O-])o1 | 1100 |
| CCN(CCCN1CCCCC1)c1cc(C)nc(Nc2ccc(C)c(Br)c2)n1 | 248 |
| CN1CCN(CCCNCc2cccc(-c3ccc(CNCCc4ccccc4)cc3)c2)CC1 | 781 |
| OCc1ccc2nc3c(cc2c1)-c1cccc2cccc-3c12 | 664 |
| O=C(Nc1cccc(N2CCC(NCc3cnn(-c4cccc(F)c4)c3)CC2)c1)c1ccncc1 | 1390 |
| CC[C@H]1CN(CCCC(=O)c2ccccc2)CC[C@H]1CCCc1ccnc2ccc(OC(=O)c3ccccc3)cc12 | 832 |
| CN(C(=O)/C=C/c1cc(C(F)(F)F)ccc1F)C1CCN(CCCCCNC(=O)/C=C/c2ccc(Cl)c(Cl)c2)C1 (stereo not drawn) | 1090 |
| CC(C)CCNCC(O)Cn1c2ccc(Cl)cc2c2cc(Cl)ccc21 (stereo not drawn) | 447 |
| O=c1c(NCCCN(Cc2ccc(F)cc2)c2ccccn2)c(NCc2cccnc2)c1=O | 61.7 |
| CC(C)NCc1ccc(-c2ccc(-c3nc4cc(C(F)(F)F)ccc4[nH]3)s2)cc1 | 181 |
| COc1ccc(NC(=O)Nc2cc(C)nc3cccnc23)cc1Cn1ccnc1 | 736 |
| COc1ccccc1C(=O)Nc1cccc(N2CCC(NCc3ccc(-n4cccn4)cc3)CC2)c1 | 1190 |
| COc1ccc2c(=NN=Cc3cccc(C)n3)cc(-c3ccccc3)[nH]c2c1 | 751 |
| COc1ccc(CNC2CCCC2)cc1-c1ccc(S(=O)(=O)NCCN2CCCC2)s1 | 798 |
| COc1ccc(NC(=O)[C@H](CC(C)C)Nc2cc(C)nc(NCCc3ccccc3)n2)cc1 | 888 |
| CCc1cn2c3c(cc(C(=O)N[C@@H](Cc4ccccc4)[C@H](O)CNCc4ccccc4)cc13)N(C)S(=O)(=O)CC2 | 664 |

| Compound | XC50 [nM] |
| --- | --- |
| O=C(NCCN1CCCC1)c1cccc(-c2ccc(-c3nc4ccccc4[nH]3)cc2)c1 | 919 |
| CCc1ccccc1N1CCN(CCCC(=O)c2ccc(NC(=O)c3cc(Cl)cc(Cl)c3)cc2)CC1 | 290 |
| c1ccc2cc3c(Nc4ccc(N5CCCCC5)cc4)ccnc3cc2c1 | 739 |
| CC[C@H]1CN2CC[C@H]1C[C@H]2[C@H](O)c1cc(-c2ccc(F)cc2)nc2ccc(OC)cc12 | 49.7 |
| Cc1ccc(Cc2c(N)nc3nc(N)nc(N)c3c2C)cc1 | 188 |
| CCCc1cn2c3c(cc(C(=O)N[C@@H](Cc4ccccc4)[C@H](O)CNC4CCCCC4)cc13)N(C)S(=O)(=O)CC2 | 66.9 |
| CCN(CC)CC(O)CNc1c2ccc([N+](=O)[O-])cc2nc2cc(OC)c(OC)cc12 (stereo not drawn) | 266 |
| N=C(N)NN=Cc1cc([N+](=O)[O-])ccc1Sc1ccccc1CO | 1460 |
| C[C@@H](Nc1nc(NCc2ccccc2)c2sccc2n1)c1ccccc1 | 919 |
| Cc1cc(N[C@@H](Cc2ccccc2)C(=O)NCCOc2ccccc2)nc(NCCc2ccccn2)n1 | 1520 |
| CN(C)c1ccc(-c2ccc(C(=O)NC3CCN(Cc4ccc5c(c4)OCCO5)CC3)s2)cc1 | 1120 |
| CC[C@H]1CN2CC[C@H]1C[C@@H]2[C@@H](O)c1cc(Cl)nc2ccc(OC)cc12 | 63.5 |
| COc1ccc2ncc(F)c(NC(=O)C3CCC(NCc4cc5cc(F)cc(F)c5[nH]4)CC3)c2n1 (stereo not drawn) | 1090 |
| O=C1CCCN1CCCNCc1ccc(-c2ccc(-c3nc4cc(C(F)(F)F)ccc4[nH]3)s2)cc1 | 380 |
| O=C(c1ccc(F)c2ccccc12)N1CCc2cc3nccc(N4CCN5CCC[C@H]5C4)c3cc21 | 1000 |
| CCOc1cc(C(C)C)ccc1N1CCN(CCCCNC(=O)c2ccc(NC(=O)c3ccc(Cl)cc3)cc2)CC1 | 416 |
| CN(C)CCCc1cc2c(cc1Cl)CCN2C(=O)Nc1ccc(-c2ccncc2)c2ccccc12 | 1180 |
| CC(=O)Nc1nc(C(=O)Nc2ccc(-c3cccc(-c4nc5cccc(C)c5[nH]4)c3)cc2)cs1 | 232 |
| CCc1ccc(NC(=O)c2cccc(CN3CCCN(Cc4ccc(OC)cc4)CC3)c2)cc1 | 919 |
| Cc1cccc(CCNC(=O)c2cc(Br)cc(N3CCN(c4ccncc4)CC3)c2)c1 | 874 |
| CN(C)CCN(C)Cc1ccc(-c2ccc(NC(=O)c3cccc(Cl)c3)cc2)cc1 | 1140 |
| COc1cc(Nc2nc(N)c3cc(OC)c(OC)cc3n2)cc(OC)c1 | 272 |
